Measured values reported in ChEMBL document CHEMBL1201862, “PubChem BioAssay data set” (2004).
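The compound was tested at five concentrations on cells cultured in 96-well plates, with a 48-hour exposure period. The concentration for 50% growth inhibition is given as GI50.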 Active and inactive are the calls of the source. Rule as the data show it: active = GI50 up to about 1.1 µM and inactive = higher.

Tests used:
Assay in all cases: inhibition of tumour cell growth, NCI panel, 48 h
NCI-H226 = system: NCI-H226
MDA-MB-435 = system: MDA-MB-435
OVCAR-3 = system: OVCAR-3
SNB-19 = system: SNB-19
A498 = system: A498
K562 = system: K562
HCC 2998 = system: HCC 2998
MDA-N = system: MDA-N
SN12C = system: SN12C
SW-620 = system: SW-620
HOP-62 = system: HOP-62
SK-OV-3 = system: SK-OV-3
Hs-578T = system: Hs-578T
OVCAR-5 = system: OVCAR-5
HL-60 = system: HL-60
M19-MEL = system: M19-MEL
SF-539 = system: SF-539
SK-MEL-5 = system: SK-MEL-5
MDA-MB-231 = system: MDA-MB-231
RXF 393 = system: RXF 393

Measured: GI50

N#C/C(=C\c1ccc2[nH]ccc2c1)C(=O)NCCCCNC(=O)/C(C#N)=C/c1ccc2[nH]ccc2c1
inactive: NCI-H226 > 31.6 µM | MDA-MB-435 > 10 µM | OVCAR-3 > 31.6 µM | SNB-19 > 31.6 µM | A498 > 31.6 µM | K562 > 31.6 µM | HCC 2998 > 31.6 µM | MDA-N > 10 µM | SN12C > 31.6 µM | SW-620 > 31.6 µM | HOP-62 > 31.6 µM | SK-OV-3 > 31.6 µM | Hs-578T > 10 µM | OVCAR-5 > 31.6 µM | HL-60 > 31.6 µM | M19-MEL > 100 µM | SF-539 > 31.6 µM | SK-MEL-5 > 31.6 µM | MDA-MB-231 > 10 µM | RXF 393 > 10 µM

CCOC(=O)CN1C(=O)c2cc([N+](=O)[O-])cc3cc([N+](=O)[O-])cc(c23)C1=O
inactive: NCI-H226 45.4 µM | MDA-MB-435 13.8 µM | OVCAR-3 23.2 µM | SNB-19 > 83.4 µM | A498 > 100 µM | K562 5.13 µM | HCC 2998 > 100 µM | MDA-N 11 µM | SN12C 14.7 µM | SW-620 68.5 µM | HOP-62 > 100 µM | SK-OV-3 > 95.7 µM | Hs-578T > 100 µM | OVCAR-5 > 100 µM | HL-60 1.71 µM | M19-MEL 30.1 µM | SF-539 20 µM | SK-MEL-5 27.3 µM | MDA-MB-231 45.4 µM | RXF 393 11.9 µM

CCOc1ccccc1NC(=O)C(=O)CC(=O)c1sc(Nc2nnc(-c3ccc(Cl)c(Cl)c3)o2)nc1C
inactive: NCI-H226 > 100 µM | OVCAR-3 77.8 µM | SNB-19 > 100 µM | A498 > 100 µM | K562 > 100 µM | HCC 2998 > 100 µM | SN12C > 100 µM | SW-620 33.5 µM | HOP-62 > 100 µM | SK-OV-3 > 100 µM | OVCAR-5 > 100 µM | HL-60 > 100 µM | M19-MEL > 100 µM | SF-539 > 100 µM | SK-MEL-5 > 100 µM | RXF 393 > 100 µM

CC(C)(C)c1ccc2c(c1)S(=O)(=O)Nc1ccccc1NS(=O)(=O)c1cc(C(C)(C)C)ccc1OCCOCCOCCO2
inactive: NCI-H226 > 100 µM | OVCAR-3 > 100 µM | SNB-19 > 100 µM | A498 52.5 µM | K562 > 100 µM | HCC 2998 > 100 µM | SN12C > 100 µM | SW-620 > 100 µM | HOP-62 > 100 µM | SK-OV-3 81.1 µM | OVCAR-5 > 100 µM | HL-60 > 100 µM | M19-MEL > 100 µM | SF-539 40 µM | SK-MEL-5 93.8 µM | RXF 393 45.5 µM

CCSC(SCC)c1cc2c(cc1Br)OCO2
inactive: NCI-H226 24.2 µM | OVCAR-3 22.9 µM | SNB-19 58.9 µM | A498 25.8 µM | K562 3.77 µM | HCC 2998 17.8 µM | SN12C 30.5 µM | SW-620 10.6 µM | HOP-62 60.3 µM | SK-OV-3 25.2 µM | OVCAR-5 27.2 µM | HL-60 10.1 µM | M19-MEL 19.1 µM | SF-539 16.1 µM | SK-MEL-5 17.5 µM | RXF 393 26.7 µM
